From patent publication US20250154468A1, “METHOD FOR INDUCING DEDIFFERENTIATION OF ADIPOCYTES” (City University of Hong Kong, priority 2023, published 2025)

Columns and labels:
Assay type in all cases: cell-based, mouse
[1] = tested on: 3T3-L1 adipocytes; assay: Loss of lipid droplets and morphological changes of 3T3-L1 adipocytes; parameters: loss of lipid droplets: dose or concentration left out as unconfirmed
Protocol: 3T3-L1 (ATCC CL-173) cells were cultured in DMEM medium (Thermo Fisher, product no. 11965126) containing 10% FBS, 2 mM L-glutamine and […] of penicillin-streptomycin (Thermo Fisher).
1.25×10^5 3T3-L1 were seeded in 6-well dishes and cultured at 37° C. and 5% CO2. The 10 μg/ml insulin (MedChemExpress, product no. HY-P0035), 1 μM dexamethasone (MedChemExpress, product no. HY-14648), 0.5 mM 3-isobutyl-1-methylxanthine (IBMX) (MedChemExpress, product no. HY-12318) and 2 μM rosiglitazone (Sigma, product no. R2408-10MG) (Differentiation medium) were supplemented in culture medium to constitute the differentiation medium for 2 days. Differentiation to SVF was induced by differentiation medium. The SVF cells were incubated for 5 days with differentiation medium. The medium was then changed to DMEM containing 10% FBS, 1×P/S, and 10 μg/ml insulin for 48 h, followed by changing to the culture medium.
[…] […] HY-Y0873), and maintained at 37° C. and 5% CO2. The medium was changed every 3 days, being careful to avoid shaking the dish to allow the hypertonic medium to diffuse slowly in the culture dish.

[2] = tested on: SVF adipocytes; assay: Loss of lipid droplets and morphological changes of SVF-derived adipocytes; parameters: loss of lipid droplets: dose or concentration left out as unconfirmed
Protocol: C57BL/6J mice were used for the present invention and maintained in a 12:12 h light-dark cycle. All mouse experiments were performed in accordance with the protocol approved by the Institutional Animal Research Ethics Sub-Committee of City University of Hong Kong and Department of Health, The Government of The Hong Kong Special Administrative Region. 6 to 8-week-old female were anesthetized with 4% of isoflurane by inhalation, and then inguinal, retroperitoneal WAT were removed. The tissues were shredded after washing in sterile PBS. Afterwards, the tissue pieces were incubated in type II collagenase (Sigma, product no. C6885) for 1 h at 37° C. before passed through a sterile 100 μm filter. SVF was obtained after 5 min centrifugation at 1000 rpm. Culture medium (DMEM supplemented with 10% FBS and 1% penicillin-streptomycin (all obtained from Thermo Fisher) was added to resuspend the cells, followed by culturing in 100 mm culture dishes. The following day, the culture medium was changed to remove the dead and non-adherent cells.
1.25×10^5 3T3-L1 were seeded in 6-well dishes and cultured at 37° C. and 5% CO2. […]

[3] = tested on: adipocytes; assay: Oil Red O staining of adipocytes; conditions: BML-284 treatment
Protocol: Adipocytes were stained with Oil red O staining kit (Solarbio, product no. G1262) solution to detect the lipid droplets according to manufacturer's instructions. Specifically, cells were fixed with 10% formalin for 20 min at room temperature, followed by washing with 60% isopropanol for 5 min. Subsequently, staining was conducted with ORO solution for 20 min at room temperature to enable binding of the dye to the lipid droplets. Finally, the cells were washed with distilled water to eliminate any residual dye.

[4] = tested on: C/EBPβ, PPAR-γ, and adiponectin; assay: RT-qPCR of adipogenic markers in 3T3-L1 adipocytes; conditions: BML-284 treated cells
Protocol: (§1) Total RNA was isolated using the RNA Extraction Kit (Takara, product no. 9767) in accordance with the manufacturer's recommended protocol. The first-strand cDNA was synthesized using the PrimeScript RT Reagent Kit (Takara, product no. RR047A) for RT-PCR. In brief, a 10 μl system containing 2 μl of 5× PrimeScript RT Master Mix (Perfect Real Time) and RNase-Free Distilled Water and RNA solution, with a total RNA amount of 500 ng, was transferred to the ABI ProFlex PCR System (2×96-well) to perform reverse transcription. RT-PCR was then conducted using the Ex-Taq PCR kit (Takara, product no. RR820A) following the manufacturer's instructions. All RT-qPCR primer sequences were included in Table 2.

[5] = tested on: Smad 9, Esrrb, and Sox2; assay: RT-qPCR of multipotency / stem cell marker genes in adipocytes; conditions: BML-284 treated cells
Protocol: as §1

[6] = tested on: CD13 and Endoglin; assay: Immunostaining of surface markers of dedifferentiated adipocytes; conditions: BML-284 treated cells
Protocol: Twelve hours before the experiment, cells were seeded onto cover slips in 12-well dishes and cultured overnight at 37° C. and […]. Cells were fixed with […] for 10 min at 4° C. Next, the cells were either directly incubated with 1% BSA/PBS for 1 h or first permeabilized with 0.1% Triton X-100/PBS for 10 min at 4° C. before blocking with 1% BSA/PBS. Subsequently, CD13 primary antibody (Santa Cruz, product no. sc-13536 1:100) or Endoglin primary antibody (Santa Cruz, product no. sc-18838 1:100) was incubated with cells overnight at 4° C. Following 3 times washing in 0.5% tween/PBS, cells were incubated with secondary antibody (CST, product no. 8890S) in 1% BSA/PBS (1:400) in darkness for 1.5 hours at room temperature. After further washing, cells were mounted with DAPI (Thermo Fisher, product no. 62247) and examined with a Nikon A1HD25 confocal microscope.

[7] = tested on: 3T3-L1 adipocytes; assay: Osteogenic re-differentiation of treated 3T3-L1 adipocytes; conditions: BML-284-treated adipocytes
Protocol: The osteogenic and chondrogenic re-differentiation capacities of dedifferentiated adipocytes were also examined. To induce osteogenic differentiation, 1×10^6 cells were seeded in 6-well plates and incubated overnight at 37° C. and 5% CO2. The culture medium was then replaced with StemPro Osteogenesis Differentiation medium (Thermo Fisher, product no. A1007201) and cells were maintained in this medium for up to 14 days, with medium renewal every 3 days. This medium contains specific factors that promote differentiation towards the osteogenic lineage, allowing the cells to deposit mineralized extracellular matrix and express osteogenic markers.
Alkaline phosphatase (ALP) staining was conducted on Day 9 of the feeder cell-mediated reprogramming process, following the manufacturer's instructions for the Alkaline Phosphatase Detection Kit (Sigma, product no. SCR004). The staining was performed to detect the activity of ALP, a marker of pluripotency, and to assess the success of the reprogramming process.
Total RNA was isolated using the RNA Extraction Kit (Takara, product no. 9767) in accordance with the manufacturer's recommended protocol. The first-strand cDNA was synthesized using the PrimeScript RT Reagent Kit (Takara, product no. RR047A) for RT-PCR. […]

[8] = tested on: 3T3-L1 adipocytes; assay: Chondrogenic re-differentiation of treated 3T3-L1 adipocytes; conditions: BML-284-treated adipocytes
[9] = tested on: 3T3-L1 adipocytes; assay: AnnexinV-FITC/PI staining, apoptosis of adipocytes; conditions: comparison of BML-284 and hypertonic treatment
Protocol: The hypertonic dedifferentiation of adipocytes typically requires up to 7 days of culture in 2% PEG-300. Considering that TNF-α is recognized as a proinflammatory cytokine capable of inducing adipocyte apoptosis, an evaluation of the apoptotic status of adipocytes was carried out using AnnexinV-FITC/PI staining. […] It was concluded that the extended hypertonic treatment could lead to apoptosis alongside the dedifferentiation of adipocytes.

[10] = tested on: VDAC and NDUFA9 in the EVs of 3T3-L1 adipocytes; assay: Immunoblot of mitochondrial proteins in EVs of 3T3-L1 adipocytes
Protocol: To obtain lysates, cells were washed twice with cold PBS and lysed with 1 mL of RIPA buffer (Beyotime, product no. P0013B) at 4° C. for 1 hour with gentle rotation. The lysate was subsequently centrifuged at 12,000 g for 20 min at 4° C., and the resulting supernatant was quantified the protein concentration. Protein extracts were then separated by SDS-PAGE and transferred onto a NC membrane (Bio-Rad, product no. 1620112). The membranes were incubated overnight at 4° C. with antibodies against VDAC (CST, product no. 4866s, 1:1000), NDUFA9 (Abcam, product no. ab14713, 1:1000), CD81(Santa Cruz, product no. sc-166029, 1:1000), Non-phospho (Active) β-Catenin (CST, product no. 8814, 1:2000), β-Catenin (CST, product no. 9562, 1:1000) and 3-actin (Santa Cruz, product no. sc-47778, 1:1000). Following incubation with the appropriate secondary antibody (Abcam, product no. ab205719; Thermo Fisher, product no. 31460, 1:4000), the protein bands were visualized using an enhanced chemiluminescence (ECL) kit (Bio-Rad, product no. 170-5061) and captured using a Bio-red ChemiDoc. […]
The 3T3-L1 adipocytes were treated by isotonic and hypertonic medium. […] The resuspended suspensions contain approximately 80 μg protein each as determined by DC protein assay (Bio-Rad, product no. 5000114). […]

[11] = tested on: mitochondria in adipocytes; assay: MitoTracker Green (MTG) staining of mitochondria; conditions: pyruvic acid (1 mM) added to the hypertonic treatment
Protocol: Hypertonicity is known to disrupt the ionic homeostasis of cells and reduce the electronic potential in mitochondria, consequentially inhibiting ATP production.
To stain cells with MitoTracker (CST, product no. FM 9074), the 1 mM stock solution should be diluted directly into normal growth media to achieve a staining concentration ranging from 400 nM. The live cells were incubated for 15 minutes at 37° C. Following incubation, live imaging is necessary to visualize the staining pattern within the cells.
To mitigate mitochondrial stress, adipocytes were treated with 1 mM pyruvic acid (Sigma-Aldrich, product no. 107360) in hypertonic cultures. An equivalent volume of DMSO was added to the control samples. Following the treatment, the cells were either subjected to MTG staining or the supernatants were collected for EV isolation and analysis.

[12] = tested on: TNF-α, IL-6, RIP1, CEBPA, and MCP-1; assay: RT-qPCR of inflammatory genes in 3T3-L1 adipocytes
Protocol: To validate this, MEVs were isolated from the hypertonic treatment of 3T3-L1 adipocytes and subsequently applied to naïve 3T3-L1 adipocytes cultured in isotonic conditions (FIG. 6A).
as §1

COc1cccc(-c2cc(NCc3ccc4c(c3)OCO4)nc(N)n2)c1 [BML-284, 2-amino-4-(3,4-(methylenedioxy)benzylamino)-6-(3-methoxyphenyl)pyrimidine]
loss of lipid droplets ([1]; 3T3-L1 adipocytes, isotonic culture, 4 days): 40% | cells with elongated morphology ([1]; BML-284-treated 3T3-L1 adipocytes): significant increases | cells with elongated morphology ([2]; BML-284-treated SVF adipocytes): significant increases | loss of lipid droplets ([2]; SVF adipocytes, isotonic culture, 4 days): 80% | Oil red staining [3]: decreased | expression of adipogenic genes (C/EBPβ, PPAR-γ, adiponectin) [4]: significant reductions | expression of marker genes of multipotency (Smad 9, Esrrb, Sox2) [5]: significant increases | expression of proteins of multipotency (CD13 and endoglin) [6]: significant increases | expression of osteogenic markers after inducing treatment [7]: increased expression | expression of chondrogenic markers after inducing treatment [8]: increased expression | apoptosis in 3T3-L1 adipocytes [9]: did not lead to significant apoptosis

O=C(/C=C/c1ccc(/C=C/C(=O)Nc2ccc(C3=NCCN3)cc2)cc1)Nc1ccc(C2=NCCN2)cc1 [GW4869]
EVs level of NDUFA9 induced by hypertonic treatments ([10]; 10 μM GW4869, vs DMSO): substantially inhibited

CC(=O)C(=O)O [pyruvic acid]
MTG staining of mitochondria in adipocytes [11]: effectively restored | levels of mitochondrial proteins VDAC and NDUFA9 in the EVs ([10]; pyruvic acid 1 mM in hypertonic culture): reduced | induction of TNF-α expression by hypertonic EVs ([12]; EVs from hypertonic culture with pyruvic acid): prevented | induction of TNF-α and IL-6 expression in hypertonic culture ([12]; pyruvic acid added to the hypertonic culture, 2 hours): abolished
